In experiment [1] the test system is B cell lymphoblastoma (JY) cells pulsed with peptide. In words: Chromium-release killing assay with CTL from peptide-immunized HHD mice, peptide-pulsed JY targets. The class given is ex vivo. The following applies: for CTL lysis of peptide-pulsed target cells: T cells of HHD mice immunized with the peptide, not with negative control peptide. As to the method:
(§1) Mice: HHD mice on […] background, transgenic for human MHC Class I (α1 and α2 domains from HLAA*0201, α3 domain from […]) and knockout of H2-D^b (mouse MHC Class I).
(§2) Immunizations: 200 μg peptide plus 200 μg HBVc “helper” peptide (to elicit CD4+ T cell help), emulsified in […] Freud's Adjuvant (IFA) is used to immunize the HHD mice subcutaneously in the lower abdominal area.
(§3) Mouse T Cell Culture: Spleens were harvested from the mice and dissociated using sterile frosted glass slides to yield single-cell suspension. Spleenocytes are plated at approximately 1×10^6 cells/ml and 10% FBS supplemented with L-glutamine, non-essential amino acids and β2-mercaptoethanol. Ex vivo cells were stimulated with 10 μg/ml peptide and fed every 2-3 days with medium and 2 ng/ml rIL-2 for 7-10 days.
Cell Lines: Human cell lines which naturally express the HLAA*0201 allele of MHC Class I are grown in RPMI 1640 and 10% FBS supplemented with L-glutamine. Cell lines include the JY and U66 lymphobastoma cell lines of B cell origin and the T2 cell line of T cell origin.
Killing Assay: Target cell lines are loaded with radioactive sodium chromate (^51Cr) and pulsed with 20 μg/ml peptide or as a negative control peptide, flu matrix protein MP-58. Spleen cells are plated with targets at various effector target ratios and incubated at 37° C., 5% CO2 overnight. Supernatants are harvested from each well and assayed for radioactive chromium indicating release from lysed cells. % specific lysis was determined by subtracting the control minimum release from experimental wells and dividing by maximum-minimum release.
Statistics: Statistical analysis was performed with Statview. Data from killing assays of a minimum of three mice are presented as means ± standard errors (SE). ANOVA was used to determine the statistical significance compared to the negative control peptide.

The target in the next experiment is HLA-A2 (Homo sapiens, UniProt P04439, D140Y/D185E/D98H/E176V/E277Q/G131W/G231S/I119V/I121R/I166T/I218V/L300P/L318F/N151K/N90K/P208A/P217A/Q86G/Q94H/R138H/R169H/T345S). Briefly: Cell-based fluorescence peptide/MHC (HLA-A2) binding and stability assay. Particulars: for peptide binding to HLA-A2: FIG. 1, fluorescence shift (FL1) in presence vs absence of peptide. The text has this: The native Ig λ62-10 is shown in panel A, and the heteroclitic Ig λ62-10 is show in panel B, with the shift to the right (filled in curve) in the presence of the compared to their absence (unfilled curve) indicating Ig λ62-10 peptide binding to HLA-A2 (FL1).
The inventors discovered, using Ig light chain sequencing studies with bone marrow aspirates from 264 AL amyloid subjects the relative frequency of light chain subtypes in AL amyloidosis. Selecting the over-represented light chains in AL amyliod subjects, the inventors evaluated the affinity for formation of stable complexes for the HLA-A*0201 (HLA-A2)-binding peptides using three algorithms to predict the stability of peptide-MHC class I complexes. One such subtype (lambda 6; 16% of all AL amyloidosis cases) contains a conserved framework I sequence (lambda 6 (2-10)) predicted to bind stably to HLA-A2. The inventors confirmed this prediction using a standard fluorescence assay. Subsequently, the inventors tested the ability to induce CTL capable of lysing peptide-pulsed or Ig lambda 6-expressing human B cell tumors by immunizing HLA-A2 transgenic, (HHD) mice (Firat et al, 1999) with the lambda 6 (2-10) peptide. The investigators also tested the ability of lambda 6 (2-10) peptide-induced CTL to cross-react with plasma cells expressing a related lambda light chain subtype (lambda 2). Using public web-based algorithms we identified potential immunogenic peptides from a human immunoglobulin light chain (lambda 6) which causes 16-20% of all AL amyloidosis. Culture based assays supported the likelihood that the identified peptide would be immunogenic.

The subject of experiment [2] is Ig λ2-expressing U266 multiple myeloma plasma cells. In words: Chromium-release killing assay with CTL from peptide-immunized HHD mice, U266 targets. The format is ex vivo. The following applies: FIG. 5. As to the method:
as §1, §2, §3
(§4) Cell Lines: Human cell lines which naturally express the HLAA*0201 allele of MHC Class I are grown in RPMI 1640 and 10% FBS supplemented with L-glutamine. […]
(§5) Killing Assay: Target cell lines are loaded with radioactive sodium chromate (^51Cr) and pulsed with 20 μg/ml peptide or as a negative control peptide, flu matrix protein MP-58. […] Supernatants are harvested from each well and assayed for radioactive chromium indicating release from lysed cells. % specific lysis was determined by subtracting the control minimum release from experimental wells and dividing by maximum-minimum release. […]

The subject of experiment [3] is JY cells transfected with full length λ6 gene. Briefly: Chromium-release killing assay with CTL from peptide-immunized HHD mice, JY cells transfected with full length λ6 gene. The class given is in vivo. The following applies: FIG. 4. As to the method: as §1, §2, §3, §4, §5
Experiment [4] deals with T1, HLA-A*0201 (HLA-A2) on cells (human).
T1 construct: whole, on cells; also called MHC Class I
In words: flow cytometry, HLA-A2 fluorescence (FL1) on cells with and without peptide.

[5] abbreviates: T cells of HHD mice immunized with the peptide.

Regarding “SLFPRLYPV (listed as Mus musculus) [mBlimp470-478, native peptide of the murine Blimp-1 protein]”, the “CTL lysis of peptide-pulsed target cells” value in experiment [1] is “lysed target cells pulsed with the native murine Blimp470-478 peptide”. Moreover, the “mice that produced a CTL response” value in experiment [1] (of 12 mice immunized, FIG. 7) came to 10 mice.

Turning to “YLFPRLYPV (listed as Mus musculus) [heteroclitic mBlimp470-478, heteroclitic variant of mBlimp470-478]”, in experiment [1], the “CTL lysis of peptide-pulsed target cells” value is “lysed target cells pulsed with the hc murine Blimp470-478 peptide”. Besides, in experiment [1] (of 10 mice immunized, FIG. 8), the “mice that produced a CTL response” value amounted to 7 mice.

Turning to “FMLTQPHSV [λ62-10, 9mer from framework 1 of the human lambda 6 immunoglobulin light chain]”, at HLA-A2, the “peptide binding to HLA-A2” value is recorded as “binds to HLA-A2”. Besides, the “CTL lysis of U266 target cells” value in experiment [2] (setting [5]) was “lysed U266 target cells pulsed with the λ6 peptide as well as U266 cells not pulsed with a peptide”. Moreover, the “mice that produced a CTL response” value is recorded as 8 mice in experiment [2] (of 11 mice immunized); 13 mice in experiment [3] (of 16 mice immunized); 17 mice in experiment [1] (of 24 mice immunized, FIG. 2). Besides, the “CTL lysis of targets transfected with full length λ6 gene” value in experiment [3] (setting [5]) is listed as “lysed targets transfected with the gene for the full length λ6 protein”. Also, the “CTL lysis of peptide-pulsed target cells” value in experiment [1] is reported as “lysed target cells pulsed with the λ6 peptide”.

“YMLTQPHSV [het λ62-10, heteroclitic variant of lambda 6(2-10), substitution at position 1]”: the “peptide binding to HLA-A2” value on HLA-A2 (listed as YMLTQPHSV (SEQ ID NO: 2)) is reported as “higher affinity”; at HLA-A2 (listed as heteroclitic Ig λ62-10), “binds to HLA-A2”. Also, at HLA-A2 (FIG. 9, as early as 2 hours and over at least 24 hours), the “stability of peptide/MHC complex” value was “more stable than the native lambda 6 peptide”. In addition, the “CTL lysis of peptide-pulsed target cells” value in experiment [1] is recorded as “lysed target cells pulsed with either heteroclitic λ6 peptide or the native λ6 peptide”. For the same molecule, the “mice that produced a CTL response” value in experiment [1] (of 8 mice immunized, FIG. 3) amounted to 7 mice.

As to FMLTQPHSV (also called λ62-10; Ig λ62-10) [lambda 6(2-10) peptide], in experiment [4], the binding result was “binds”.

B1: heteroclitic lambda 6(2-10) peptide (peptide)
peptide: YMLTQPHSV
notes: Variant of the native lambda 6(2-10) peptide with one substitution at position 1 of the 9mer; also called het λ62-10; heteroclitic Ig λ62-10
Turning to B1, the binding result in experiment [4] is “binds”.

Values taken from patent US20090028847A1, “MULTIPLE MYELOMA AND AL AMYLOID IMMUNOTHERAPY TARGETING IMMUNOGLOBULIN LIGHT CHAINS AND USES THEREOF” (TRUSTEES OF BOSTON UNIVERSITY, priority 2007, published 2009).
